In article PMC11493442, “Sensory-Motor Neuropathy in Mfn2 T105M Knock-in Mice and Its Reversal by a Novel Piperine-Derived Mitofusin Activator” (The Journal of Pharmacology and Experimental Therapeutics, 2024):
Read-outs that look alike come from different tables or passages of the source.

Assays:
[1] = ref Dang et al., 2021 (cpd 5b); cited from earlier work
[2] = p.o. 50 mg/kg, ref Dang et al., cited from earlier work
[3] = ref Dang et al., cited from earlier work
[4] = test system: Mfn2 T105M KI DRG neurons; experiment: Mitochondrial motility in DRG neurons from Mfn2 T105M KI mice; format: cell-based, mouse; conditions: 100 nM for 48 hours
Experimental: DRG neurons were isolated from ∼8-week-old Mfn2 T105M motor neuron transgenic mice, Mfn2 T105M KI mice, or Mfn1 fl/fl/Mfn2 fl/fl mice and cultured as described ([Dang et al., 2023]).
(§1) Mitochondrial motility in neuronal processes of cultured reprogrammed human motor neurons ([Abernathy et al., 2017]; [Dang et al., 2023]), mouse DRG neurons transduced with adeno-Mito-DS-Red2, or axons of ex vivo mouse sciatic nerves stained with tetramethyl rhodamine ester was measured using time-lapse confocal microscopy on a Nikon Eclipse Ti2 confocal microscope as described ([Franco et al., 2016], [2020]; [Rocha et al., 2018]). Mouse DRG neurons and reprogrammed human CMT2A motor neurons were transduced with adeno-Mito-DS-Red2 to visualize mitochondria; ex vivo sciatic nerve mitochondria were labeled with tetramethyl rhodamine ester (200 nM for 30 minutes at 37° C). Time-lapse imaging was carried out using confocal microscopy on a Nikon Eclipse Ti2 confocal microscope with 1 frame captured every 5 seconds for 180 frames (15 minutes). Kymographs and quantitative data were generated using the ImageJ plug-in: Velocity_Measurement_Tool.

[5] = test system: Mfn2 T105M KI mouse sciatic nerve axons; experiment: Ex vivo mitochondrial motility in sciatic nerve axons after oral dosing; conditions: 100 mg/kg by oral gavage
Experimental: as §1

Plasma PK in rats = format: in vivo, rat; conditions: oral administration
Experimental: Routine in vitro pharmacokinetic (PK) profiling of 8015 and its enantiomers (8015-P1 and 8015-P2) was performed at WuXi Apptec Co., Ltd. (Shanghai, China) using standard methods as described ([Dang et al., 2020], [2021]). In vivo PK profiling was performed by Frontage Laboratories (Exton PA, USA). The vehicle used for intravenous and oral PK studies was 12% sulfobutylether-β-cyclodextrin (SBE-β-CD; CyDex Pharmaceutical Inc., Lenexa KS, USA) in sterile water.

[6] = Enterohepatic recirculation study: oral PK without and with activated charcoal; format: in vivo, mouse; conditions: mice; for AUC(0-t) / half-life: mouse, plasma, po, 5 mg/kg; for half-life: read-out: Plasma t1/2 (converted)
Experimental: Enterohepatic recirculation (EHR) of 8015-P2 was tested by fasting mice overnight prior to administration of the compound (5 mg/kg) by oral gavage. 1 hour later, activated charcoal (2 g/kg) was administered by oral gavage to half of the mice; all mice were fed 2 hours after 8015-P2 dosing to induce gall bladder emptying. […] Areas under the concentration curves were calculated from the raw data; plasma half-times were estimated by linear regression of the second, slower elimination phase.

Mfn2 T105M knock-in mice = experiment: CMT2A phenotype reversal in Mfn2 T105M knock-in mice; format: in vivo, mouse
Experimental: The creation of mice with human CMT2A mutations MFN2 T105M and M376V CRISPR-engineered into the mouse Mfn2 gene has been reported, as was absence of a cardiac phenotype ([Franco et al., 2023]). Neuromuscular phenotyping was performed for the current studies (vide infra). Results of male and female mice were combined as there were no observed sex differences.
Mfn2 T105M knock-in mice underwent evaluation at 10-week intervals to establish basal phenotype progression. 8015 or 8015-P2 treatment studies were performed after final baseline evaluations at 50 weeks of age. 8015 (transgenic MFN2 T105M model) or 8015-P2 (Mfn2 T105M knock-in model) were administered at doses of 50 mg/kg by oral gave once daily in the morning. Repeat phenotyping was performed after 4 and 8 weeks of treatment (transgenic model) or 6 weeks of treatment (knock-in model), after which the mice were killed by anesthesia overdose and tissue specimens obtained for histologic and ultrastructural studies, as described ([Franco et al., 2020]).
Rotarod studies were performed on mice initially familiarized and trained on the Rotarod (Ugo Basile, Gemonio, VA, Italy;# 47650) at a speed of 5 rpm. For evaluation, the initial speed of 5 rpm accelerated to 40 rpm over 120 seconds and then maintained 40 rpm for a maximum of 180 seconds. For each trial, five tests were performed with at least 5 minutes rest between each test. No trends were observed from test 1 to test 5. In total, three trials were performed over sequential days to account for variabilities of the Rotarod test and between days. For each mouse, the latency (time to falling off) of replicate tests for each trial day were averaged, and results of the three independent trials were averaged to obtain a result for that condition (i.e., age, genotype, and/or drug treatment).
Neuroelectrophysiologic recordings of hindlimb compound muscle action potentials (CMAP) were performed with a Viasys Healthcare Nicolet Biomedical instrument (Middleton, WI, USA Cat:# OL060954) using Viking Quest version 11.2 software. Nerve stimulation used 3.9 mV pulses of 0.002 milliseconds duration administered through a needle electrode placed at the proximal sciatic nerve through a posterior lumbar approach. Muscle depolarization was monitored using a loop electrode placed around the mid distal hindlimb, corresponding to the greatest girth of the tibialis and gastrocnemius muscles.
An inverted grid suspension test was used to assess grip strength and coordination. Mice were placed on a grid, which was slowly inverted no higher than three feet above a padded surface; the time to falling off (latency) was recorded up to a maximum of 500 seconds. Each mouse underwent at least three independent studies on different days, and the longest latency time was used ([Aartsma-Rus and van Putten, 2014]). Obese mice (>150% of mean weight for that condition) were preemptively excluded.
Mechanical sensitivity was measured using the von Frey test ([Martinov et al., 2013]). Mice were placed in a plexiglass chamber with a mesh grid floor and allowed to accommodate for at least 20 minutes or until exploratory behavior had ceased. The response to mechanical stimulation of hind paws used IITC Supertips filaments and an electronic von Frey anesthesiometer (IITC Life Science, Inc. Woodland Hills CA, USA). Filaments were applied to the footpads with a gradual increase in pressure until paw withdrawal was evoked; the maximum applied force was recorded. Paws of the left and right foot were alternately measured, with at least six measurements taken per animal and the results averaged for each mouse.
Confocal imaging of gastrocnemius myocyte cross-sectional area (wheat germ agglutinin staining) and synapse density (α-bungarotoxin staining) was performed as described ([Franco et al., 2020]). […]

Mfn2 null MEF cells = experiment: Mitochondrial elongation (fusogenicity, mitochondrial aspect ratio) in Mfn2 null MEFs; format: cell-based, mouse
Experimental: Mitochondrial polarization based on tetramethyl rhodamine ester fluorescence and fusogenicity based on an increase in mitochondrial aspect ratio were measured in static confocal images of live cells using methods that we have extensively validated ([Franco et al., 2016], [2020]; [Rocha et al., 2018]; [Zhang et al., 2022]). As necessary, red, green, and blue brightness, or rarely contrast, were adjusted in individual confocal images prior to merging to enhance clarity. All adjustments were performed across the entire image.
Mitochondrial elongation was assessed in Mfn2 null MEF cells after treatment with compounds at concentrations ranging from 0.5 nM–10 μM in DMSO for 14 h. Mitochondria were stained with MitoTracker Orange, and nuclei were costained with Hoechst before confocal microscope imaging; at least three independent experiments were performed. Mitochondrial aspect ratio (length/width) of at least 10 cells was measured for each experiment using National Institutes of Health ImageJ. […] Concentration-response curves were generated using a sigmoidal model in Prism 8 software. EC50 and Emax values and their variances were calculated from interpolated data of all replicate experiments in a series.

mitofusins = test system: mitofusins; parameters: method as in Zhang et al., 2022; conditions: ref Zhang et al., 2022; cited from earlier work
[7] = parameters: method as in earlier work; conditions: ref Piyachaturawat et al., 1983, Bhardwaj et al., 2002, Lee et al., 2005, McNamara et al.; cited from earlier work
[8] = 5 mg/kg oral, with vs. without charcoal
[9] = 5 mg/kg oral, activated charcoal by gavage 1 hour after dosing
[10] = 50 mg/kg once daily by oral gavage for 6 weeks

O=C(N[C@H]1CC[C@H](O)CC1)C1CC1CCCc1ccccc1 (stereo partly drawn) [CPR1-B, N-(trans-4-hydroxycyclohexyl)-2-(3-phenylpropyl)cyclopropane-1-carboxamide]
Aqueous solubility (pH 7.4) [1]: <10 uM | Bioavailability ([2]; 2021 (cpd 5b)): 59% | calc logP ([3]; 2021 (cpd 5b)): 3.09

O=C(NC1CC1CCCCc1ccccc1)C1CCC(O)CC1 (stereo not shown) [Compound 8015-P2]
Mitochondrial motility in DRG neuronal processes [4]: corrected | Mitochondrial motility in sciatic nerve axons, ex vivo [5]: corrected mitochondrial dysmotility | Waxing and waning of plasma levels (Plasma PK in rats): not observed | Decrease of AUClast by charcoal [6, 8]: 17% | Decrease of t1/2 by charcoal [6, 8]: 36% | Enterohepatic recirculation ([6]; oral): undergoes enterohepatic recirculation | AUC(0-t) [6, 9]: 739 ng·h/mL | half-life [6, 9]: 1.21 h | AUC(0-t) ([6]; 5 mg/kg oral, without charcoal): 887 ng·h/mL | half-life ([6]; 5 mg/kg oral, without charcoal): 1.88 h | Motor neuron functional metrics (Rotarod latency, inverted grasp) (Mfn2 T105M knock-in mice; [10]): normalized | Neuroelectrophysiological abnormality (CMAP amplitude) (Mfn2 T105M knock-in mice; [10]): normalized | Sensory neuron metric (von Frey foot pad mechanical sensitivity) (Mfn2 T105M knock-in mice; [10]): normalized | Gastrocnemius myocyte cross-sectional area (Mfn2 T105M knock-in mice; 6 weeks of administration): reversed | Neuromuscular synapse density (Mfn2 T105M knock-in mice; 6 weeks of administration): reversed | Proportion of tibialis nerve neurons with small axonal areas (lowest quartile) (Mfn2 T105M knock-in mice; 6 weeks of administration): reversed | Mitofusin activator potency (in words) (Mfn2 null MEF cells): subnanomolar potency | Comparative fusogenic potency of the two 8015 isomers (Mfn2 null MEF cells; Mfn2-deficient mitochondria, n = 4 each): markedly more potent and effective than 8015-P1 | EC50 (Mfn2 null MEF cells; Mus musculus, MEF, 95% confidence limits 439 - 863PM, n = 4, read-out: EC50 as a fusogenic factor (fusion of Mfn2-deficient mitochondria)): 0.623 nM | Fold greater fusogenic potency versus comparators (Mfn2 null MEF cells; versus trans-MiM111 or CPR1-B / previously described mitofusin activators): ~10 fold

O=C(NC1CC1CCCc1ccccc1)[C@H]1CC[C@H](O)CC1 (stereo partly shown) [Cpd 10]
Mitofusin activator activity (mitofusins): functionally inactive

O=C(/C=C/C=C/c1ccc2c(c1)OCO2)N1CCCCC1 [piperine]
Cytotoxicity [7]: can be cytotoxic at higher concentrations | Mitofusin activation potency (in words) (mitofusins): approximately the same potency as phenylhexanamide compounds

O=C(CCCCCc1ccccc1)N[C@H]1CC[C@H](O)CC1 [trans-MiM111, N-(trans-4-hydroxycyclohexyl)-6-phenylhexanamide]
Bioavailability ([2]; 2020 (cpd 13b)): 61% | calc logP ([3]; 2020 (cpd 13b)): 3.22
